These results are taken from publication PMC7822874, “Chemoprotective antimalarials identified through quantitative high-throughput screening of Plasmodium blood and liver stage parasites” (Scientific Reports, 2021).

Assay [1] deals with T1, Plasmodium falciparum Dd2-attB (parental line), asexual blood stages.
T1 construct: Dd2-attB, the isogenic parental line
The assay can be described thus: microbe, parasite or virus in culture. Details: replicate k of 3 (each line is one of three independent assays; the three lines of one compound and parasite line follow each other). Particulars: n = 1; for Individual replicates / Log AC50 (M): 72 h; for AC50: Plasmodium falciparum, DD2, 72 h, read-out: Individual replicates / Log AC50 (converted). The method, boiled down:
(§1)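 Statistics: two-sided Student's t-test between parental and transgenic values, from three independent assays. The transgene encodes a fumarate-dependent DHODH from yeast, independent of the parasite mETC.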

The test system of assay [2] is T2, Plasmodium falciparum Dd2-attB-ScDHODH (transgenic line expressing yeast DHODH), asexual blood stages.
T2 construct: Dd2-attB-ScDHODH, the transgenic line that expresses yeast DHODH
The assay is described as follows: organism not typed. Details: replicate k of 3 (each line is one of three independent assays; the three lines of one compound and parasite line follow each other). The method, boiled down: as §1

Where [3] appears, read: 72 h; n = 1; read-out: Individual replicates / Log AC50 (converted).

Values joined by “and” are separate entries in the source; they are usually repeats but may differ in a detail not shown here. Equal entries are not always repeated.

Take `Cc1nn2c(c1-c1ccccc1-c1ccccc1)N(CC1CC1)CCC2` [NCGC00420435-02]: the “Individual replicates / Log AC50 (M)” value in assay [1] was -4.7986 Log AC50 (M) and -4.8486 Log AC50 (M); in assay [2] (72 h, n = 1), -4.7486 Log AC50 (M) and -4.8486 Log AC50 (M). The AC50 was 14.2 µM in assay [1] and 15.9 µM in assay [2] (setting [3]).

In the case of `O=C(NCCN1CCOCC1)c1cccc(-c2cc(O)c3ncccc3c2)c1` [NCGC00244535-01], in assay [1], the “Individual replicates / Log AC50 (M)” value was -4.8986 Log AC50 (M) and -5.0986 Log AC50 (M); the AC50 was 6.33 µM. In assay [2] (72 h, n = 1), the “Individual replicates / Log AC50 (M)” value was -5.1986 Log AC50 (M) and -4.7986 Log AC50 (M).

`CN(C)CCCNC(=O)c1ccc(-c2cnc3c(O)cccc3c2)cc1` [NCGC00189502-01]: the “Individual replicates / Log AC50 (M)” value in assay [1] was -4.9986 Log AC50 (M); in assay [2] (72 h, n = 1) it was -5.0486 Log AC50 (M) and -4.8986 Log AC50 (M). The AC50 is 7.1 µM in assay [1] and 7.97 µM in assay [2] (setting [3]).

As for `Cc1ccc2nc(-c3ccccn3)c(Nc3ccccc3C)n2c1` [NCGC00106087-03], the “Individual replicates / Log AC50 (M)” value in assay [1] was -5.3486 Log AC50 (M) and -5.2486 Log AC50 (M); in assay [2] (72 h, n = 1), -5.1986 Log AC50 (M) and -5.1486 Log AC50 (M). The AC50 in assay [1] was 4.48 µM; in assay [2] (setting [3]) it was 5.64 µM.

On to `CN1CCC(CNCc2nccc3c(=O)[nH]c(COc4ccc(Cc5ccccc5)cc4)nc23)C1` (centres unmarked) [NCGC00489856-01], for which, in assay [1], the “Individual replicates / Log AC50 (M)” value is -4.7986 Log AC50 (M) and -4.8486 Log AC50 (M); the AC50 is 15.9 µM. In addition, in assay [2] (setting [3]), the AC50 is 17.8 µM.

As to `CC(C)c1c(-c2cnn(C(C)(C)C)c2)[nH]c2c(C#N)cnn2c1=O` [NCGC00488278-02], the AC50 is 15.9 µM in assay [1] and 10 µM in assay [2] (setting [3]). For the same compound, the “Individual replicates / Log AC50 (M)” value in assay [2] (72 h, n = 1) is -4.7986 Log AC50 (M).

For the compound `COC(=O)c1ccc(O)c2ncc(N3CC[C@@H](N)C3)cc12` [NCGC00241044-01], the “Individual replicates / Log AC50 (M)” value in assay [1] is -4.8986 Log AC50 (M) and -5.0486 Log AC50 (M); in assay [2] (72 h, n = 1) it was -5.1986 Log AC50 (M) and -5.0986 Log AC50 (M). Further, the AC50 is 7.1 µM in assay [1] and 11.3 µM in assay [2] (setting [3]).

As for `CC(=O)Nc1cccc(-c2csc(Nc3cc(C)ccn3)n2)c1` [NCGC00357426-01], the “Individual replicates / Log AC50 (M)” value was -4.8486 Log AC50 (M) (2×) and -4.7986 Log AC50 (M) in assay [1]; -4.8486 Log AC50 (M) in assay [2] (72 h, n = 1).

Turning to `Oc1cc(NCCN2CCOCC2)cc2cccnc12` [NCGC00183799-01], in assay [1], the “Individual replicates / Log AC50 (M)” value is -5.1486 Log AC50 (M) and -5.2486 Log AC50 (M); the AC50 is 6.33 µM. For the same compound, the AC50 in assay [2] (setting [3]) is 8.94 µM.

Take `C/C=C(\C#N)C(=O)N1CCCN(c2cc(NCCC(=O)OC)nc(-c3ccccn3)n2)CC1` [NCGC00420778-01]: the AC50 in assay [1] was 15.9 µM; in assay [2] (setting [3]), 14.2 µM.

For `CN(C)CCn1nc(-c2ccccc2)nc1-c1ccccc1O` [NCGC00390083-01], the “Individual replicates / Log AC50 (M)” value is -5.1486 Log AC50 (M) and -5.1986 Log AC50 (M) in assay [1]; -5.1486 Log AC50 (M) in assay [2] (72 h, n = 1). For the same compound, the results for the AC50 in assay [1] and in assay [2] (setting [3]) were 7.1 µM and 7.97 µM, respectively.

For the compound `COC(=O)c1ccnc(NCc2ccc(O)c3ncccc23)c1` [NCGC00241031-01], the “Individual replicates / Log AC50 (M)” value is -4.8986 Log AC50 (M) and -4.7486 Log AC50 (M) in assay [1]; -4.7986 Log AC50 (M) in assay [2] (72 h, n = 1). Besides, the AC50 was 15.9 µM in assay [1] and 12.6 µM in assay [2] (setting [3]).

For the compound `Oc1ccc(CNc2cc(Cl)ccn2)c2cccnc12` [NCGC00241028-01], the “Individual replicates / Log AC50 (M)” value in assay [1] is -5.2986 Log AC50 (M); in assay [2] (72 h, n = 1), -5.3486 Log AC50 (M) and -5.2986 Log AC50 (M). Further, the values for the AC50 in assay [1] and in assay [2] (setting [3]) were 5.03 µM and 6.33 µM, respectively.

As to `CC(OCCN1CCCCC1)c1cnn(-c2cc(CO)ccn2)c1-c1cccc(-c2ccccc2)c1` (centres unmarked) [NCGC00479246-01], the “Individual replicates / Log AC50 (M)” value in assay [1] was -5.5486 Log AC50 (M) and -5.3986 Log AC50 (M); in assay [2] (72 h, n = 1), -5.3486 Log AC50 (M). Further, the AC50 in assay [1] and in assay [2] (setting [3]) was 3.56 µM throughout.

Turning to `Cc1cccc2nc(-c3ccccn3)c(Nc3ccc(F)cc3)n12` [NCGC00106061-03], the “Individual replicates / Log AC50 (M)” value in assay [1] is -5.2986 Log AC50 (M); in assay [2] (72 h, n = 1), -5.2986 Log AC50 (M) and -5.0986 Log AC50 (M). Moreover, the figures for the AC50 in assay [1] and in assay [2] (setting [3]) were 5.03 µM and 5.64 µM, respectively.

As to `CCOC(=O)c1ccc(OC(C)=O)c2ncc(N3CCOCC3)cc12` [NCGC00244523-01], the “Individual replicates / Log AC50 (M)” value is -5.3486 Log AC50 (M) and -5.3986 Log AC50 (M) in assay [1]; -5.3486 Log AC50 (M) in assay [2] (72 h; n = 1). The AC50 in assay [1] and in assay [2] (setting [3]) was 4.48 µM each time.
